Molecular target: T1, hRRM1 hexamers (Homo sapiens, UniProt P23921)
T1 sequence (P23921 1-792): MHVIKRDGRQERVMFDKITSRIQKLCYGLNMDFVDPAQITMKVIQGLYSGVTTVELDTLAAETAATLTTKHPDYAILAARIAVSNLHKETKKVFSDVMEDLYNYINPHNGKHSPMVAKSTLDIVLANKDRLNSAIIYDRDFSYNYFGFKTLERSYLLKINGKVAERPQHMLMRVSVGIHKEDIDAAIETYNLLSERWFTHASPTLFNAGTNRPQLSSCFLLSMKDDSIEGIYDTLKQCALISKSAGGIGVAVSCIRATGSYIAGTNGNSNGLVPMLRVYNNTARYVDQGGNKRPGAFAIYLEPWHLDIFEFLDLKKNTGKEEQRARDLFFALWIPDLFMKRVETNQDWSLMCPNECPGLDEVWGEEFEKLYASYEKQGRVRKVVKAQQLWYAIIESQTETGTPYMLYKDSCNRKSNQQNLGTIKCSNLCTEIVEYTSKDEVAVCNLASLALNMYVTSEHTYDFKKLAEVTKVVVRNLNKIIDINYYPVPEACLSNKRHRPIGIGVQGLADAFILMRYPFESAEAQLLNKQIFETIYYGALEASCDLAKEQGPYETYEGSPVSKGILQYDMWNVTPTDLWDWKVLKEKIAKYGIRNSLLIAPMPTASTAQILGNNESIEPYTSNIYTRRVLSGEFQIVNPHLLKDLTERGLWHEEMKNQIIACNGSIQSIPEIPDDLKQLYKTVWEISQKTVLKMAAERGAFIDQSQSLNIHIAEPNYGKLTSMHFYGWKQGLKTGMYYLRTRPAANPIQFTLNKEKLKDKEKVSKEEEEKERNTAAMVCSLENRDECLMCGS
Test: not given
Settings: cited from earlier work
In the case of `Nc1nc(Cl)nc2c1ncn2[C@@H]1O[C@H](CO)[C@@H](O)[C@@H]1F` [clofarabine, 2′-fluro-2′-deoxyarabinofuranosyl-2-chloroadenine], the binding affinity is listed as “nanomolar affinity”.

System: normal mobilized peripheral blood progenitor cells
Test: not given
Settings: previously characterized; cited from earlier work
For `O=C(NN=Cc1c(O)ccc2ccccc12)c1ccccc1O` [NSAAH, Naphthyl Salicyl Acyl Hydrazone], the cytotoxicity is listed as “little measurable cytotoxicity”.

Molecular target: T2, hRRM1 (Homo sapiens, UniProt P23921)
T2 construct: made in house; host or cells: E. coli BL21 DE3 (RIL)
T2 sequence (P23921 1-792): T1 sequence (P23921 1-792)
Test: hRRM1 enzyme activity inhibition (RR radioactivity assay, boronate chromatography)
Format: biochemical
Parameters: key: Compounds which are found to have extremely high potency are classified as “****”; Compounds which are found to have very high potency of protein synthesis are classified as “***”
Settings: potency ranking by minimum concentration required to inhibit enzyme activity; six concentrations 1-100 μM incubated with hRRM1 30 minutes, diluted by a factor of 5
Protocol: Activity measurements in Table 2 is performed as described below. Briefly, six concentrations of the compounds ranging from 1-100 μM of the compounds are incubated on ice with 2.5 μmol of hRRM1 for 30 minutes. The assay sample was then diluted by a factor of 5, and enzyme activity was assayed in triplicate. […] Activity measurements are based on the qualitative relation between the minimum concentration of compound required to produce inhibit enzyme activity. Potency activities are ranked as either extremely high, very high or significant. These activities are used to determine the activity ranking. Compounds which are found to have extremely high potency are classified as “****” Compounds which are found to have very high potency […] are classified as “***”. Compounds which are found to have significant potency are classified as
In assay buffer, six concentrations of the compounds ranging from 1-100 μM of the compounds are incubated on ice with 2.5 μmol of hRRM1 for 30 minutes. The assay sample was then diluted by a factor of 5, and enzyme activity was assayed in triplicate.
The IC50 are determined using, boronate chromatography. Six concentrations of the RRmod are studied ranging from 1-100 μM. The assay is repeated in triplicate. Data are fitted in GraphPad Prism 6.05 using a sigmoidal dose-response curve.
With `Oc1ccccc1-c1nnc(-c2ccccc2O)o1` the Activity was “***”.
In the case of `COc1ccc(Br)c(-c2nnc(-c3ccccc3O)o2)c1O`, the Activity is reported as “***”.
With `COc1ccc(-c2ccsc2)c(-c2nnc(-c3ccccc3O)o2)c1O` the Activity was “***”.
With `Oc1ccccc1-c1nc(-c2ccccc2Br)no1` the Activity was “****”.
With `Oc1ccccc1-c1nnc(-c2cc(-c3ccccc3)ccc2O)o1` the Activity was “***”.
With `COc1ccc(-c2ccccc2)c(-c2nnc(-c3ccccc3O)o2)c1O` the Activity was “***”.
In the case of `Oc1ccccc1-c1nc(-c2ccccc2-c2ccccc2)no1`, the Activity is reported as “***”.
In the case of `Oc1ccccc1-c1nc(-c2ccccc2-c2ccsc2)no1`, the Activity is reported as “***”.
In the case of `Oc1ccccc1-c1cnc(-c2ccccc2O)s1`, the Activity is reported as “***”.
For `COc1ccc(-c2cnc(-c3ccccc3O)s2)cc1`, the Activity was “***”.
With `Oc1ccccc1-c1noc(-c2cccs2)n1` the Activity was “***”.
For `Oc1ccccc1-c1noc(-c2cccnc2)n1`, the Activity was “****”.
In the case of `Oc1ccccc1-c1nc(-c2cccnc2)no1`, the Activity is reported as “****”.
In the case of `c1cncc(-c2noc(-c3cccnc3)n2)c1`, the Activity is reported as “****”.
For `c1cncc(-c2noc(-c3cnc4ccccc4c3)n2)c1`, the Activity was “***”.
With `c1cncc(-c2noc(-c3ccco3)n2)c1` the Activity was “***”.
In the case of `c1cncc(-c2noc(-c3cccs3)n2)c1`, the Activity is reported as “***”.
In the case of `COc1ccccc1-c1noc(-c2ccccc2O)n1`, the Activity is reported as “***”.
In the case of `COc1ccccc1-c1nc(-c2ccccc2O)no1`, the Activity is reported as “****”.
With `Oc1ccccc1-c1nc(-c2ccccc2OCc2ccccc2)no1` the Activity was “***”.
With `Oc1ccccc1-c1c[nH]c(-c2ccccc2O)n1` the Activity was “***”.
With `Oc1ccccc1-c1cn(-c2ccccc2O)nn1` the Activity was “***”.
For `Oc1ccccc1-c1nnn(-c2ccccc2O)n1`, the Activity was “***”.
With `Oc1ccc(Br)cc1-c1nnc(-c2cccnc2)o1` the Activity was “***”.

— US20220249457A1, “METHOD OF MODULATING RIBONUCLEOTIDE REDUCTASE” (CASE WESTERN RESERVE UNIVERSITY, priority 2019, published 2022)
